Data from paper PMC6452685, “Lysyl-tRNA synthetase as a drug target in malaria and cryptosporidiosis” (Proceedings of the National Academy of Sciences of the …, 2019).

Tests used:
PfKRS1 = PfKRS1 (Plasmodium falciparum, UniProt Q8IDJ8); assay: PfKRS1 hit discovery high-throughput screen (Kinase-Glo); assay type: biochemical; parameters: recombinant PfKRS1 (77–583 and 80–583); 6xHis (N); made in house; host or cells: E. coli Rosetta BL21(DE3), vector pAVA0421; conditions: single point 7.5 µM
Method: By using the luciferase ATP consumption (Kinase-Glo) assay platform with sub-Km substrate concentrations (thus biasing the assay toward identifying ATP-competitive inhibitors), the GlaxoSmithKline malaria actives set of ∼13,000 compounds (the Tres Cantos Antimalarial Set) ([19]) was screened against recombinant PfKRS1, leading to the discovery of a PfKRS1 inhibitor, compound 2 (Fig. 1). […] Compound 2 suffered from high metabolic instability (CLi > 50 mL⋅min^−1⋅g^−1 in mouse liver microsomes); however, in contrast to cladosporin 1, it was chemically tractable. […]
Assays were performed in 384-well format i n buffer (as des cri bed i n Tabl e S3), 60 µM lysine, and 75 nM PfKRS1. Compounds were initially screened at single point concentrations of 7.5 µM and hits were re peated three times. Plates were incubated for 180 mi ns at 37°C after a ddition of compounds. Reactions were terminated by the addi ti on of Ki nase-Glo® reagent and read on an E nVi si on pl ate reader (Perki nEl mer, W al tham, MA). […]
Us i ng the EnzChek as s ay pl atform the I C50 value for compound 5 was determined at saturating concentrati ons of both s ubs trates , 0. […] Assay ready plates containing different concent rations of compound 5 were prepa red usi ng an Ec ho® 5 50 acousti c di spenser (Labcyte Inc.). […]

Pf(K1) = assay: Drug resistant P. falciparum K1, [3H]-hypoxanthine incorporation; assay type: cell-based; conditions: Plasmodium falciparum, chloroquine-resistant
Source text: 3.2 Cytotoxicity Studies (Dundee)
In vi t ro cy totox i ci ty s tudies can be ca rri ed out us i ng Hep G 2 (Human C aucas i an hepatocy te ca rci noma, ECACC cat. no. 850 114 30) us ed as i ndi cators f or g eneral mammal i an cel l tox i ci ty . […]
3.3 In vitro Cell Assay D ata Analysis (Du ndee) […]
as 0%. Qual i ty control c ri teri a for passi ng pl ates were as fol l ow s : Z’ > 0.
< 15 . T he f ormula used to calculate Z’ is 1- 3´ (St D e v _ hi gh + St D e v_ low) . […]
Al l EC50 Curve fitti ng was undertaken usi ng XLFi t versi on 4.2 usi ng Model 205 wi th the foll owi ng 4 paramet ri c equat i on: A + (?-A) ,where A=% i nhi bi ti on at bo ttom, B=% i nhi bi ti on at top, C= EC , […]
D= slope, x= inhibitor concentration a nd y= % inhibition. […]
was fixed to 100 only when at least 50% of inhibition was reached. […]
Hoffmann-La Ro che Ltd) a nd resi stant strai ns K1 and TM90C2B (fr om the Malaria Research an d Reference Reag ent Res ou rce C enter, accu rate d es cri pti ons of the g eneti c backg roun ds of thes e strains can be obtained at http://www.beiresources.org) were cultivated in a variation of the medium prev i ous l y des cri bed (5, 6), c onsi sti ng of RPMI 16 40 su ppl emented wi th 0.5% ALBUMAX® II, 25 m M Hepes , 25 mM NaHC O3 (pH 7. […] The re s ul t s were recorded and expressed as a percentage of the untreated controls. […]

Chain of PfKRS1 (Q8IDJ8 77-583): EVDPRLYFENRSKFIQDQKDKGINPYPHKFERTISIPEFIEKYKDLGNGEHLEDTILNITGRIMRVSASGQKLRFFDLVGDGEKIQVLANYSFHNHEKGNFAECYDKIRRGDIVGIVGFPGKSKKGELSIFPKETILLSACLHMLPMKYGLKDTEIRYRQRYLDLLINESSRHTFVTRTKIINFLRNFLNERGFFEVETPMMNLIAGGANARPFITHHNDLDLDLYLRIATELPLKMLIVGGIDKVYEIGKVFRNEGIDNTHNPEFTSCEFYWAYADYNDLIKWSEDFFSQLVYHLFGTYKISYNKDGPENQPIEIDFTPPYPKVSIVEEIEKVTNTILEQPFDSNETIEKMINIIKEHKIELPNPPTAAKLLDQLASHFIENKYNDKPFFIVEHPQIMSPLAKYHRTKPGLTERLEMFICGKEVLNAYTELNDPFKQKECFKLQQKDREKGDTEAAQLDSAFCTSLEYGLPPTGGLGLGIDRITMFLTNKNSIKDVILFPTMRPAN

Row | Structure (SMILES) | inhibition of PfKRS1 in high-throughput screen (PfKRS1) | EC50 (Pf(K1))
1 | O=C(NCC1CCCCC1)c1cc(=O)c2ccccc2o1 [Compound 2] | 71-91% | –
2 | O=C(NCC1(O)CCC(F)(F)CC1)c1cc(=O)c2cc(F)ccc2o1 [Compound 5] | – | 510 nM
